According to publication PMC7862291, “Full-length in meso structure and mechanism of rat kynurenine 3-monooxygenase inhibition” (Communications Biology, 2021):

Tests used:
hKMO = target: T1, hKMO (Homo sapiens, UniProt O15229); assay: Human KMO enzyme (cell-free) assay, NADPH consumption by absorbance; format: biochemical
T1 construct: purchased Origene
Description: (§1) Human KMO was purchased from Origene and used to assay compounds. Full-length Rat-KMO purified for crystallisation was used to assay compounds. Full-length Rat-KMO-expressing membranes were used for mutant assays (Fig. 4b) only. […] Images were taken using Odyssey CLX (LI-COR Biosciences) and quantified using ImageStudio2.0 (LI-COR Biosciences) software.
(§2) Test compounds were dissolved in DMSO and diluted with assay buffer containing 50 mM HEPES, 2 mM MgCl2, 0.5 mM EGTA, 1 mM DTT, 0.05% Tween20 and 0.005% of antiform SI (pH = about 7.9) to prepare a 4% DMSO solution. […] After 5 min of pre-incubation, reactions were started by adding 10 μL of substrate solution containing 2.4 mM kynurenine and 0.6 mM NADPH. Reactions were run for 90 min at 30 °C, then terminated by adding 5 μL of stop buffer (40 mM maleimide, 2 mM WST-9 and 0.1 mM 1-methoky PMS in water). […] Liposomal assays were performed in the same manner except that the composition of the assay buffer was changed (phosphate-buffered saline, 2 mM MgCl2, 1 mM DTT, 0.05% Tween 20).
(§3) Compound assays were analysed and plotted on graphs using Prism (GraphPad Software Inc. San Diego, CA, USA).

Rat KMO = target: T2, Rat KMO (Rattus norvegicus, UniProt O88867); assay: Rat KMO enzyme (cell-free) assay, NADPH consumption by absorbance; format: biochemical
T2 construct: The GST-tagged full-length KMO (1-478) baculovirus vector contained a thrombin cleavage site; GST (thrombin cleavage site between GST and KMO) (N, cleaved yes); made in house; host or cells: Spodoptera frugiperda (Sf9), baculovirus
T2 sequence (O88867 whole entry): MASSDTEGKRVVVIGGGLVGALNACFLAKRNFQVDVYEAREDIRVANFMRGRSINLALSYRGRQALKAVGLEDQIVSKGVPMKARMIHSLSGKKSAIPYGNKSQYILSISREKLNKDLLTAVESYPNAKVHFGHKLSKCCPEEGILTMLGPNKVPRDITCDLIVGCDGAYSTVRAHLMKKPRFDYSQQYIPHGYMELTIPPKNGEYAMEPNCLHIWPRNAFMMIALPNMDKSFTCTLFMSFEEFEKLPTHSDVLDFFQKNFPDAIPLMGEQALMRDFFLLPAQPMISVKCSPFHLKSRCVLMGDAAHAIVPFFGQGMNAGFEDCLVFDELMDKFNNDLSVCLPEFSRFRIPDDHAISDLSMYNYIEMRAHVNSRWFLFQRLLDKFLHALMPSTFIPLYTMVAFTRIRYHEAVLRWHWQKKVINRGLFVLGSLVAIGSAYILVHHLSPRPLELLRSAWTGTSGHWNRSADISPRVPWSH
Description: as §1, §2, §3

T1 sequence (O15229 whole entry): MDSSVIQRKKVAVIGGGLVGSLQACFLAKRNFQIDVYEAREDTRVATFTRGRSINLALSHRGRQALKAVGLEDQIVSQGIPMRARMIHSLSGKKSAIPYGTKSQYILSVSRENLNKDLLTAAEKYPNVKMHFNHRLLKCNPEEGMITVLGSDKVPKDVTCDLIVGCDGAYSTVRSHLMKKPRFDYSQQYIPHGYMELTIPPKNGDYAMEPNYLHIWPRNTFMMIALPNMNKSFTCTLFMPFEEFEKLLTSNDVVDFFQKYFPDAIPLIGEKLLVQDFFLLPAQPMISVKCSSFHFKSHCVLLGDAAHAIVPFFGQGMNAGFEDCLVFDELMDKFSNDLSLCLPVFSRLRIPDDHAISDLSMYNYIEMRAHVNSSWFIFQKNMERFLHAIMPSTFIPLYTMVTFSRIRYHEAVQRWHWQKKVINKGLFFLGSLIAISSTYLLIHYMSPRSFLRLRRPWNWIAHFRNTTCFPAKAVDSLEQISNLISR

IC50 (hKMO; cell-free enzyme assay, high kynurenine, read-out: Human KMO IC50): 0.014 µM
inhibition at 0.0003 µM (hKMO; conc 0.0003 μM, duplicates, read-out: inhibition rate, Hs-KMO cell-free assay (Figure 1A source data)): 8.45%
inhibition rate, Hs-KMO cell-free assay (Figure 1A source data) (hKMO; conc 0.001 μM, duplicates): 6.826%
inhibition at 0.001 µM (hKMO; conc 0.001 μM, duplicates, read-out: inhibition rate, Hs-KMO cell-free assay (Figure 1A source data)): 4.54%
inhibition rate, Hs-KMO cell-free assay (Figure 1A source data) (hKMO; conc 0.003 μM, duplicates): 16.103%
inhibition at 0.003 µM (hKMO; conc 0.003 μM, duplicates, read-out: inhibition rate, Hs-KMO cell-free assay (Figure 1A source data)): 15.5%
inhibition rate, Hs-KMO cell-free assay (Figure 1A source data) (hKMO; conc 0.01 μM, duplicates): 39.429%
inhibition at 0.01 µM (hKMO; conc 0.01 μM, duplicates, read-out: inhibition rate, Hs-KMO cell-free assay (Figure 1A source data)): 34.9%
inhibition rate, Hs-KMO cell-free assay (Figure 1A source data) (hKMO; conc 0.03 μM, duplicates): 71.311%
inhibition at 0.03 µM (hKMO; conc 0.03 μM, duplicates, read-out: inhibition rate, Hs-KMO cell-free assay (Figure 1A source data)): 74.2%
inhibition rate, Hs-KMO cell-free assay (Figure 1A source data) (hKMO; conc 0.1 μM, duplicates): 87.583%
inhibition at 0.1 µM (hKMO; conc 0.1 μM, duplicates, read-out: inhibition rate, Hs-KMO cell-free assay (Figure 1A source data)): 92.8%
inhibition rate, Hs-KMO cell-free assay (Figure 1A source data) (hKMO; conc 0.3 μM, duplicates): 98.840%
inhibition at 0.3 µM (hKMO; conc 0.3 μM, duplicates, read-out: inhibition rate, Hs-KMO cell-free assay (Figure 1A source data)): 106%
inhibition rate, Hs-KMO cell-free assay (Figure 1A source data) (hKMO; conc 1 μM, duplicates): 98.570%
inhibition at 1 µM (hKMO; conc 1 μM, duplicates, read-out: inhibition rate, Hs-KMO cell-free assay (Figure 1A source data)): 104%
IC50 (Rat KMO; cell-free enzyme assay, high kynurenine): 0.017 µM
inhibition rate, Rat-KMO cell-free assay (Figure 1B source data) (Rat KMO; conc 0.0003 μM, duplicates): 10.786%
inhibition at 0.0003 µM (Rat KMO; conc 0.0003 μM, duplicates, read-out: inhibition rate, Rat-KMO cell-free assay (Figure 1B source data)): 11.1%
inhibition rate, Rat-KMO cell-free assay (Figure 1B source data) (Rat KMO; conc 0.001 μM, duplicates): 13.043%
inhibition at 0.001 µM (Rat KMO; conc 0.001 μM, duplicates, read-out: inhibition rate, Rat-KMO cell-free assay (Figure 1B source data)): 12.6%
inhibition rate, Rat-KMO cell-free assay (Figure 1B source data) (Rat KMO; conc 0.003 μM, duplicates): 19.707%
inhibition at 0.003 µM (Rat KMO; conc 0.003 μM, duplicates, read-out: inhibition rate, Rat-KMO cell-free assay (Figure 1B source data)): 21.2%
inhibition rate, Rat-KMO cell-free assay (Figure 1B source data) (Rat KMO; conc 0.01 μM, duplicates): 32.767%
inhibition at 0.01 µM (Rat KMO; conc 0.01 μM, duplicates, read-out: inhibition rate, Rat-KMO cell-free assay (Figure 1B source data)): 33%
inhibition rate, Rat-KMO cell-free assay (Figure 1B source data) (Rat KMO; conc 0.03 μM, duplicates): 60.579%
inhibition at 0.03 µM (Rat KMO; conc 0.03 μM, duplicates, read-out: inhibition rate, Rat-KMO cell-free assay (Figure 1B source data)): 60.5%
inhibition rate, Rat-KMO cell-free assay (Figure 1B source data) (Rat KMO; conc 0.1 μM, duplicates): 80.975%
inhibition at 0.1 µM (Rat KMO; conc 0.1 μM, duplicates, read-out: inhibition rate, Rat-KMO cell-free assay (Figure 1B source data)): 83%
inhibition rate, Rat-KMO cell-free assay (Figure 1B source data) (Rat KMO; conc 0.3 μM, duplicates): 95.593%
inhibition at 0.3 µM (Rat KMO; conc 0.3 μM, duplicates, read-out: inhibition rate, Rat-KMO cell-free assay (Figure 1B source data)): 101%
inhibition rate, Rat-KMO cell-free assay (Figure 1B source data) (Rat KMO; conc 1 μM, duplicates): 93.954%
inhibition at 1 µM (Rat KMO; conc 1 μM, duplicates, read-out: inhibition rate, Rat-KMO cell-free assay (Figure 1B source data)): 97.8%
Compound: COc1ccc2c(c1)CN(c1nc(C(=O)N(C)c3cc(Cl)c(F)cc3C(=O)O)c(Cl)s1)C2 [Compound 4]
